Reference: patent US5057493A, “Novel antibiotics R106” (priority 1988, dated 1991)
Starred links: 1 amine or outer side, 2 acyl side, 3 side chain; linkers in the order of their positions; H or OH if unused. Non-standard residues stand in square brackets, D forms with d. Residues, ends and D or L forms follow the SMILES beside them. ξ: configuration not given here. ξNMeVal(3-OH) = CNC(C(=O)O)C(C)(C)O; NMeF = CN[CH](Cc1ccccc1)C(=O)O; X1 = CCC(C)C(O[*:1])C(=O)[*:2]; NMeV = CN[CH](C(=O)O)C(C)C

What was measured:
[1] = Physicochemical properties of compound 1
Description: Physicochemical properties of compound 1 are as follows.

[2] = test system: Trichophyton rubrum TIMM 1216; test: MIC by agar dilution method, casitone agar; format: cell-based; settings: 27° C. for 7 days
[3] = test system: Geotrichum candidum TIMM 0694; test: MIC by agar dilution method, casitone agar; format: cell-based; settings: 27° C. for 7 days
[4] = test system: Candida albicans TIMM 1768; test: Systemic candidiasis model of mice; format: in vivo, ICR strain mice; settings: for Mean Survival Day: 3 hours after infection, then once a day for 4 days, 30 days; for Number of Animal Survived/Number of Animal Tested: 30 days after infection; for T/C: mean survival day treated vs control
Protocol: Candida albicans TIMM 1768 was cultured in Sabouraud-dextrose broth at 37° C. overnight, and the cells were collected and suspended in physiological saline. A cell suspension containing 1×10^6 cells was intravenously injected to ICR strain mice (5 week age, female). After 3 hours, a solution of an antibiotic R106 in TWEEN 80-ethanolphysiological saline (1:9:90, v/v) was subcutaneously, intravenously or orally given to the mice in various concentrations, and then once a day for 4 days the R106 drug solution was given. Mortality was assessed for 30 days after infection to determine the therapeutic effect.
T/C is a value which expresses the mean survival day of the treated group
to the mean survival day of the not treated control group by %.

[5] = test system: Aspergillus clavatus TIMM 0056; test: MIC by agar dilution method, casitone agar; format: cell-based; settings: 27° C. for 7 days
[6] = test system: Blastomyces dermatitidis TIMM 1690; test: MIC by agar dilution method, casitone agar; format: cell-based; settings: 27° C. for 7 days
[7] = test system: Sporothrix schenckii TIMM 0959; test: MIC by agar dilution method, casitone agar; format: cell-based; settings: 27° C. for 7 days
[8] = test system: Fonsecaea pedrosoi TIMM 0482; test: MIC by agar dilution method, casitone agar; format: cell-based; settings: 27° C. for 7 days
[9] = test system: Aspergillus flavus TIMM 0058; test: MIC by agar dilution method, casitone agar; format: cell-based; settings: 27° C. for 7 days
[10] = test system: Exophiala werneckii TIMM 1334; test: MIC by agar dilution method, casitone agar; format: cell-based; settings: 27° C. for 7 days
[11] = test system: Phialophora verrucosa TIMM 0903; test: MIC by agar dilution method, casitone agar; format: cell-based; settings: 27° C. for 7 days
[12] = test system: Microsporum canis TIMM 0760; test: MIC by agar dilution method, casitone agar; format: cell-based; settings: 27° C. for 7 days
[13] = test system: Epidermophyton floccosum TIMM 0431; test: MIC by agar dilution method, casitone agar; format: cell-based; settings: 27° C. for 7 days
[14] = test system: Blastomyces dermatitidis TIMM 0126; test: MIC by agar dilution method, casitone agar; format: cell-based; settings: 27° C. for 7 days
[15] = test system: Aspergillus commune TIMM 1331; test: MIC by agar dilution method, casitone agar; format: cell-based; settings: 27° C. for 7 days
[16] = test system: Histoplasma capsulatum TIMM 0714; format: cell-based; settings: 27° C. for 7 days
[17] = test system: Aspergillus citrinum TIMM 1330; test: MIC by agar dilution method, casitone agar; format: cell-based; settings: 27° C. for 7 days
[18] = test system: Trichophyton mentagrophytes TIMM 1177; test: MIC by agar dilution method, casitone agar; format: cell-based; settings: 27° C. for 7 days
[19] = test system: Aspergillus crustorum TIMM 1332; test: MIC by agar dilution method, casitone agar; format: cell-based; settings: 27° C. for 7 days

CCC(C)C1NC(=O)C2CCCN2C(=O)C(Cc2ccccc2)N(C)C(=O)C(Cc2ccccc2)NC(=O)C(C(C)C)N(C)C(=O)C(C(C)CC)OC(=O)C(C(C)(C)O)N(C)C(=O)C(CC(C)C)NC(=O)C(C(C)C)N(C)C1=O (centres unmarked) [Compound 1] (cyclo([ξNMeVal(3-OH)][X1][NMeV]F[NMeF]PI[NMeV]L); configuration not given here)
Acidic, neutral or basic [1]: neutral substance | Solubility in solvent ([1]; organic solvents): soluble in chloroform, methanol, ethanol, N,N-dimethylformamide and dimethylsulfoxide | Solubility in solvent ([1]; water): sparingly soluble in water | Minimum Inhibitory Concentration [2]: > 80 µg/mL | Minimum Inhibitory Concentration [3]: 0.63 µg/mL | Mean Survival Day ([4]; i.v. 0.875 mg/kg): 14.6 ± 1.9 days | Number of Animal Survived/Number of Animal Tested ([4]; i.v. 0.875 mg/kg): 0/5 | T/C ([4]; i.v. 0.875 mg/kg): 119% | Mean Survival Day ([4]; i.v. 1.75 mg/kg): 18.2 ± 5.0 days | Number of Animal Survived/Number of Animal Tested ([4]; i.v. 1.75 mg/kg): 0/5 | T/C ([4]; i.v. 1.75 mg/kg): 149% | Mean Survival Day ([4]; i.v. 3.5 mg/kg): 19.2 ± 6.3 days | Number of Animal Survived/Number of Animal Tested ([4]; i.v. 3.5 mg/kg): 0/5 | T/C ([4]; i.v. 3.5 mg/kg): 157% | Mean Survival Day ([4]; i.v. 7 mg/kg): 29.0 ± 2.2 days | Number of Animal Survived/Number of Animal Tested ([4]; i.v. 7 mg/kg): 4/5 | T/C ([4]; i.v. 7 mg/kg): 237% | Mean Survival Day ([4]; i.v. 14 mg/kg): 26.6 ± 5.0 days | Number of Animal Survived/Number of Animal Tested ([4]; i.v. 14 mg/kg): 3/5 | T/C ([4]; i.v. 14 mg/kg): 217% | Mean Survival Day ([4]; p.o. 7 mg/kg): 14.8 ± 4.8 days | Number of Animal Survived/Number of Animal Tested ([4]; p.o. 7 mg/kg): 0/5 | T/C ([4]; p.o. 7 mg/kg): 121% | Mean Survival Day ([4]; p.o. 14 mg/kg): 23.2 ± 6.2 days | Number of Animal Survived/Number of Animal Tested ([4]; p.o. 14 mg/kg): 0/5 | T/C ([4]; p.o. 14 mg/kg): 189% | Mean Survival Day ([4]; p.o. 28 mg/kg): 30.0 ± 0 days | Number of Animal Survived/Number of Animal Tested ([4]; p.o. 28 mg/kg): 5/5 | T/C ([4]; p.o. 28 mg/kg): 245% | Mean Survival Day ([4]; s.c. 1.75 mg/kg): 14.2 ± 2.9 days | Number of Animal Survived/Number of Animal Tested ([4]; s.c. 1.75 mg/kg): 0/5 | T/C ([4]; s.c. 1.75 mg/kg): 116% | Mean Survival Day ([4]; s.c. 3.5 mg/kg): 18.8 ± 3.5 days | Number of Animal Survived/Number of Animal Tested ([4]; s.c. 3.5 mg/kg): 0/5 | T/C ([4]; s.c. 3.5 mg/kg): 153% | Mean Survival Day ([4]; s.c. 7 mg/kg): 22.4 ± 7.0 days | Number of Animal Survived/Number of Animal Tested ([4]; s.c. 7 mg/kg): 2/5 | T/C ([4]; s.c. 7 mg/kg): 183% | Mean Survival Day ([4]; s.c. 14 mg/kg): 27.2 ± 6.3 days | Number of Animal Survived/Number of Animal Tested ([4]; s.c. 14 mg/kg): 4/5 | T/C ([4]; s.c. 14 mg/kg): 222% | Minimum Inhibitory Concentration [5]: 0.16 µg/mL | Minimum Inhibitory Concentration [6]: ≤ 0.04 µg/mL | Minimum Inhibitory Concentration [7]: > 80 µg/mL | Minimum Inhibitory Concentration [8]: 0.31 µg/mL | Minimum Inhibitory Concentration [9]: > 80 µg/mL | Minimum Inhibitory Concentration [10]: 1.25 µg/mL | Minimum Inhibitory Concentration [11]: > 80 µg/mL | Minimum Inhibitory Concentration [12]: > 80 µg/mL | Minimum Inhibitory Concentration [13]: 2.5 µg/mL | Minimum Inhibitory Concentration [14]: 0.31 µg/mL | Minimum Inhibitory Concentration [15]: 1.25 µg/mL | Minimum Inhibitory Concentration [16]: 0.08 µg/mL | Minimum Inhibitory Concentration [17]: > 80 µg/mL | Minimum Inhibitory Concentration [18]: > 80 µg/mL | Minimum Inhibitory Concentration [19]: > 80 µg/mL
